Broadly, the inhibition is the drop in the measured response relative to a control, in per cent. One may read the IC50 as the midpoint of a concentration-inhibition curve.

The values below come from ChEMBL document CHEMBL4411295, “Discovery of novel nonsteroidal VDR agonists with novel diarylmethane skeleton for the treatment of breast cancer” (Eur J Med Chem, 2019).

Activity calls are given as the source filed them. The rule behind the calls is not given here. Where only a bound is given, the exact number is not on record here.

The target of data set [1] is T1, Vitamin D3 receptor (Homo sapiens) (UniProt P11473).
T1 sequence (whole entry): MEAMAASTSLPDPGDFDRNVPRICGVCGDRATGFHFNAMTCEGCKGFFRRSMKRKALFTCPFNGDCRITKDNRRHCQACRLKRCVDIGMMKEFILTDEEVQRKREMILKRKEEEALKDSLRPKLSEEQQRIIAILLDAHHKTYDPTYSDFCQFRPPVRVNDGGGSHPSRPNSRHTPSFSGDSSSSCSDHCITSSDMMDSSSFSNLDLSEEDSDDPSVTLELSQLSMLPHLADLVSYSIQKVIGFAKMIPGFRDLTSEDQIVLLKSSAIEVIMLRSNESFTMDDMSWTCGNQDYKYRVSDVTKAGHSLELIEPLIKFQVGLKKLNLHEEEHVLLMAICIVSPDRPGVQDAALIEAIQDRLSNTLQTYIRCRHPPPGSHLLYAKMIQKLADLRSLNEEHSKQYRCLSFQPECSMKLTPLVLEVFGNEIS
The data set is described as follows: Binding affinity at VDR (unknown origin) assessed as relative VDR-probe inhibition at 1 uM by fluorescence polarization assay relative to 1,25(OH)2D3. (In general: In fluorescence polarisation assays a small probe gives low polarisation when free and higher when bound to something large.)

The test system of data set [2] is MCF7. In words: Induction of apoptosis in human MCF7 cells assessed as reduction in Bcl2 level at 0.5 uM after 24 hrs by Western blot analysis. It counts as functional, cell-based.
Data set [3] relates to MCF7. The data set is described as follows: Induction of apoptosis in human MCF7 cells assessed as increase in Bax level at 0.5 uM after 24 hrs by Western blot analysis. Type of data set: functional, cell-based. In general terms: A western blot detects proteins with antibodies after separation by electrophoresis.
For data set [4], the system named is MCF7. In words: Antiproliferative activity against human MCF7 cells after 24 hrs by MTT assay. Type of data set: functional, cell-based. The note with it: MCF7, 24 h. In general terms: Formazan colour is commonly taken as a measure of viable cells.
A further data set concerns L02. In words: Cytotoxicity against human LO2 cells assessed as reduction in cell viability after 24 hrs by MTT assay. Type of data set: cell-based. As to conditions: L02, 24 h.
Data set [5] has as its system MCF7. In words: Induction of apoptosis in human MCF7 cells assessed as reduction in Bcl2 expression at 0.5 uM after 24 hrs by qPCR analysis. It counts as functional, cell-based.
Data set [6] has as its system MCF7. In words: Induction of apoptosis in human MCF7 cells assessed as increase in p21 level at 0.5 uM after 24 hrs by Western blot analysis. It counts as functional, cell-based.
The subject of data set [7] is MCF7. In words: Induction of apoptosis in human MCF7 cells assessed as increase in Bax expression at 0.5 uM after 24 hrs by qPCR analysis. It counts as functional, cell-based.
Data set [8] has as its system MCF7. In words: Induction of apoptosis in human MCF7 cells assessed as increase in p21 expression at 0.5 uM after 24 hrs by qPCR analysis. Type of data set: functional, cell-based.
Data set [9] deals with MCF7. The data set is described as follows: Induction of apoptosis in human MCF7 cells at 0.5 uM after 48 hrs by Annexin V-FITC/propidium iodide staining-based flow cytometric analysis. It counts as functional, cell-based.
The next data set relates to Mus musculus. The data set is described as follows: Hypercalcemic effect in BALB/C nude mouse xenografted with human MCF7 cells at 0.5 ug/kg, ip administered 3 times per week measured after 15 days. Type of data set: ADME, organism-based. The note with it: in vivo, 0.0005 mg/kg, 360 h.
Data set [10] relates to MCF7. In words: Induction of apoptosis in human MCF7 cells assessed as early apoptotic cells at 1 uM after 48 hrs by Annexin V-FITC/propidium iodide staining-based flow cytometric analysis (reference value: 3.80%). It counts as functional.
Data set [11] concerns MCF7. In words: Cell cycle arrest in human MCF7 cells assessed as accumulation at G0/G1 phase at 1 uM after 24 hrs by propidium iodide staining based flow cytometric analysis (reference value: 56.64%). It counts as functional.
For data set [12], the system named is MCF7. In words: Antitumor activity against human MCF7 cells xenografted in BALB/C nude mouse assessed as reduction in tumor volume at 0.5 ug/kg, ip administered 3 times per week. Type of data set: functional, organism-based.
Data set [13] concerns MCF7. In words: Induction of apoptosis in human MCF7 cells assessed as late apoptotic cells at 1 uM after 48 hrs by Annexin V-FITC/propidium iodide staining-based flow cytometric analysis (reference value: 1.61%). Type of data set: functional.
Data set [14] relates to MCF7. The data set is described as follows: Induction of apoptosis in human MCF7 cells assessed as necrotic cells at 1 uM after 48 hrs by Annexin V-FITC/propidium iodide staining-based flow cytometric analysis (reference value: 0.29%). Type of data set: functional.
Data set [15] concerns MCF7. In words: Cell cycle arrest in human MCF7 cells assessed as accumulation at S phase at 1 uM after 24 hrs by propidium iodide staining based flow cytometric analysis (reference value: 31.32%). It counts as functional.
Data set [16] relates to MCF7. In words: Cell cycle arrest in human MCF7 cells assessed as accumulation at G2/M phase at 1 uM after 24 hrs by propidium iodide staining based flow cytometric analysis (reference value: 12.04%). It counts as functional.
Data set [17] has as its system MCF7. In words: Induction of apoptosis in human MCF7 cells assessed as viable cells at 1 uM after 48 hrs by Annexin V-FITC/propidium iodide staining-based flow cytometric analysis (reference value: 94.3%). It counts as functional. As to conditions: MCF7, 48 h, read-out: Activity.

On to `CCCC(O)(C#Cc1ccc(C(CC)(CC)c2ccc(C(=O)NCCN(CC)CC)n2CC)cc1C)CCC`, for which, in [1], the inhibition was determined as 52.1%.
`CCN(CC)CCNC(=O)c1cc(C(CC)(CC)c2ccc(C#CC3(O)CCC3)c(C)c2)cn1CC`: the outcome with MCF7 [2], with MCF7 [3], in the data set with MCF7 [5], in the data set on MCF7 [6], in the data set with MCF7 [7] and with MCF7 [8] was Active. For the same compound, the inhibition in [1] came out at 49.3%. Besides, the IC50 is 1280 nM in the data set with MCF7 [4] and above 50 µM with L02.
Turning to `CCN(CC)CCNC(=O)c1ccc(C(CC)(CC)c2ccc(C#CC(C)(O)CC)c(C)c2)n1CC` (configuration not stated), the outcome in the data set with MCF7 [2], in the data set with MCF7 [3], with MCF7 [5], in the data set on MCF7 [6], in the data set with MCF7 [7] and in the data set with MCF7 [8] was Active. In addition, the outcome with MCF7 [9] was Active. The inhibition in data set [1] was found to be 63.4%.
As for `CCN(CC)CCNC(=O)c1cc(C(CC)(CC)c2ccc(C#CC3(O)CCCCC3)c(C)c2)cn1CC`, the inhibition in [1] came out at 44.2%. Besides, the half-maximal inhibitory concentration (IC50) in the data set on MCF7 [4] came out at 3070 nM.
As for `CCN(CC)CCNC(=O)c1cc(C(CC)(CC)c2ccc(C#CC(C)(O)CC)c(C)c2)cn1CC` (configuration not stated), the inhibition in data set [1] came to 59.2%.
In the case of `C=C1/C(=C\C=C2/CCC[C@]3(C)[C@@H]([C@H](C)CCCC(C)(C)O)CC[C@@H]23)C[C@@H](O)C[C@@H]1O` [CALCITRIOL], the Activity result with Mus musculus is given as “Toxic”; in the data set with MCF7 [10], 14%; in the data set on MCF7 [11], 70.33%; with MCF7 [13] it was 3.88%; with MCF7 [14], 0.4%; in the data set with MCF7 [15], 25.56%. Moreover, the Activity in the data set on MCF7 [16] is 4.11%. Moreover, the outcome with MCF7 [12] was inactive. The viability at 1 µM with MCF7 [17] was determined as 81.8%.
Regarding `C=C1/C(=C\C=C2/CCC[C@]3(C)[C@@H]([C@H](C)/C=C/[C@@H](O)C4CC4)CC[C@@H]23)C[C@@H](O)C[C@@H]1O` [CALCIPOTRIENE], the Activity in the data set with MCF7 [10] worked out at 15.1%; in the data set with MCF7 [11] it was 63%; in the data set with MCF7 [13], 3.77%; in the data set on MCF7 [14], 0.31%; with MCF7 [15] it was 24.45%; in the data set with MCF7 [16], 12.55%. Moreover, the viability at 1 µM in the data set on MCF7 [17] is 80.8%.
Take `CCN(CC)CCNC(=O)c1cc(C(CC)(CC)c2ccc(C#CC(C)(C)O)c(C)c2)cn1CC`: the inhibition in [1] came to 56.3%.
For `CCCC(O)(C#Cc1ccc(C(CC)(CC)c2cc(C(=O)NCCN(CC)CC)n(CC)c2)cc1C)CCC`, the result with MCF7 [2], in the data set on MCF7 [3], in the data set with MCF7 [5], in the data set with MCF7 [6], in the data set on MCF7 [7] and with MCF7 [8] was Active. In addition, the inhibition in data set [1] amounted to 51.1%.
For the compound `CCN(CC)CCNC(=O)c1ccc(C(CC)(CC)c2ccc(C#CC(C)(C)O)c(C)c2)n1CC`, the outcome in the data set on MCF7 [2], with MCF7 [3], with MCF7 [5], in the data set with MCF7 [6], with MCF7 [7] and in the data set on MCF7 [8] was Active. Besides, in data set [1], the inhibition is 60.2%.
